Each structure is given as a SMILES string.

Sequence of TNF-α converting enzyme (TACE) (P78536 215-824, species assumed): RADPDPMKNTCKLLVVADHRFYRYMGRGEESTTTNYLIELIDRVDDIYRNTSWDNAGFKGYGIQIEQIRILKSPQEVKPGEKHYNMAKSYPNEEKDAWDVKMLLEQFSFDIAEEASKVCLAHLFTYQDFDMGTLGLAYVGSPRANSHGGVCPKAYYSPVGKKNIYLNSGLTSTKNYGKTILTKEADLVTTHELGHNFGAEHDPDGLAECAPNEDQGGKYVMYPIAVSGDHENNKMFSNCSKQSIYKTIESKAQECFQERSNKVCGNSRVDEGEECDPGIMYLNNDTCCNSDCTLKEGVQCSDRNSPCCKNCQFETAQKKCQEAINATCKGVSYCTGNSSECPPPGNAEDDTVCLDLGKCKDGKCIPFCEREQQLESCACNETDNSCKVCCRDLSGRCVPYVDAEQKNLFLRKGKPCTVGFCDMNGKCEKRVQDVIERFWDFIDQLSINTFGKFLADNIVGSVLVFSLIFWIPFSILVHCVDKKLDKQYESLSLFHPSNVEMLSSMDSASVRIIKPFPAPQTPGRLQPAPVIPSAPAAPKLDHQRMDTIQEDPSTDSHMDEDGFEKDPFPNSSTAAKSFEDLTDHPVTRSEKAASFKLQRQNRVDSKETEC

The first assay addresses MMP-13 (Homo sapiens, UniProt P45452). As to the kind of experiment: MMP-13 inhibition (thiopeptide or fluorescent peptide substrate). It is filed as biochemical. The settings on record: read-out: MMP-13 IC50.
Regarding `CC#CCOc1ccc(S(=O)(=O)N(C)C(CSCc2cccnc2)C(=O)NO)cc1` (stereo not shown) [Example 155, 2-[(4-but-2-ynyloxy-Benenesulfonyl)-methyl-amino]-N-hydroxy-3-(pyridin-3-ylmethylsulfanyl)-butyramide], the IC50 – broadly, the concentration needed to halve the response being measured – amounted to 4.8 nM.

The next assay has as its target TNF-α converting enzyme (TACE) (Homo sapiens, UniProt P78536). As to the kind of experiment: TACE inhibition (fluorescent peptidyl substrate). It is filed as biochemical. Conditions: 1 uM; Table 15.
Consider `CC#CCOc1ccc(S(=O)(=O)NC(Cc2c[nH]c3ccccc23)C(=O)NO)cc1` (stereo not shown) [Example 101], for which the % Inhibition – broadly, how much of the control response was suppressed – at 1 uM (In Vitro Inhibition of TACE) is given as 30.2%.

For `CC#CCOc1ccc(S(=O)(=O)NC(CCCN)C(=O)NO)cc1` (stereo not shown) [Example 76], the “% Inhibition at 1 uM (In Vitro Inhibition of TACE)” value (shortened to “% Inhibition at 1 uM”) worked out at 29.7%.

As to `CC#CCOc1ccc(S(=O)(=O)N2CC(OCc3ccccc3)CC2C(=O)NO)cc1` (stereo not shown) [Example 88], the “% Inhibition at 1 uM” value is 8.4%.

Consider `CC#CCOc1ccc(S(=O)(=O)N[C@H](C(=O)NO)[C@@H](C)CC)cc1` [Example 89], for which the “% Inhibition at 1 uM” value was found to be 56.8%.

Consider `CC#CCOc1ccc(S(=O)(=O)NC(CSCNC(C)=O)C(=O)NO)cc1` (stereo not shown) [Example 96], for which the “% Inhibition at 1 uM” value turned out to be 22%.

As to `CC#CCOc1ccc(S(=O)(=O)N[C@@H](CC)C(=O)NO)cc1` [Example 63], the “% Inhibition at 1 uM” value is given as 47.6%.

For the compound `CC#CCOc1ccc(S(=O)(=O)NC(C(=O)NO)C(C)O)cc1` (stereo not shown) [Example 100], the “% Inhibition at 1 uM” value is on record as 15.4%.

As to `CC#CCOc1ccc(S(=O)(=O)NC(Cc2c[nH]cn2)C(=O)NO)cc1` (stereo not shown) [Example 87], the “% Inhibition at 1 uM” value came out at 47.8%.

The assay is the same for the next values; noted with them: IC 50 nM (In Vitro Inhibition of TACE), Table 15.
In turn, `CC#CCOc1ccc(S(=O)(=O)N[C@H](CCCCNC(=O)c2ccc(OC)cc2)C(=O)NO)cc1` [Example 361, N-[(5R)-5-({[4-(But-2-ynyloxy)phenyl]sulfonyl}amino)-6-(hydroxyamino)-6-oxohexyl]-4-methoxybenzamide] gave an IC50 of 6.32 nM.

`CC#CCOc1ccc(S(=O)(=O)N2CCCC[C@@H]2C(=O)NO)cc1` [Example 318, (2R)-1-{[4-(But-2-ynyloxy)phenyl]sulfonyl}-N-hydroxypiperidine-2-carboxamide] gave an IC50 of 11.9 nM.

For `CC#CCOc1ccc(S(=O)(=O)N[C@H](CCCCNC(=O)c2ccc3[nH]cnc3c2)C(=O)NO)cc1` [Example 349, N-[(5R)-5-({[4-(But-2-ynyloxy)phenyl]sulfunyl}amino)-6-(hydroxyamino)-6-oxohexyl]-1H-benzimidazole-5-carboxamide], half-maximal inhibition (IC50) required 9.41 nM.

`CC#CCOc1ccc(S(=O)(=O)N[C@@H](CCCN=C(N)NS(=O)(=O)c2ccc(C)cc2)C(=O)NO)cc1` [Example 65] yielded a concentration for half-maximal inhibition (IC50) of 398 ± 136 nM.

For `CC#CCOc1ccc(S(=O)(=O)N[C@H](CCCCNC(=O)c2ccncc2)C(=O)NO)cc1` [Example 359, N-[(5R)-5-({[4-(But-2-ynyloxy)phenyl]sulfonyl}amino)-6-(hydroxyamino)-6-oxohexyl]isonicotinamide], the 50% inhibitory concentration (IC50) was found to be 9.28 nM.

As to `CC#CCOc1ccc(S(=O)(=O)N[C@H](CCCNC(=O)CCc2ccccc2)C(=O)NO)cc1` [Example 339, (2R)-2-({[4-(But-2-ynyloxy)phenyl]sulfonyl}amino)-N-hydroxy-5-[(3-phenylpropanoyl)amino]pentanamide], it took 4.6 nM to reach half-maximal inhibition (IC50).

Turning to `CC#CCOc1ccc(S(=O)(=O)N[C@@H](CCCNC(=N)N)C(=O)NO)cc1` [Example 64], half-maximal inhibition (IC50) required 420 ± 50 nM.

Turning to `CC#CCOc1ccc(S(=O)(=O)N[C@H](CCCNC(=O)c2ccc(Cl)cc2)C(=O)NO)cc1` [Example 334, N-[(4R)-4-({[4-(But-2-ynyloxy)phenyl]sulfonyl}amino)-5-(hydroxyamino)-5-oxopentyl]-4-chlorobenzamide], 4.7 nM corresponded to half-maximal inhibition (IC50).

`CC#CCOc1ccc(S(=O)(=O)N[C@H](CCCCNC(=O)c2cnc3ccccc3c2)C(=O)NO)cc1` [Example 364, N-[(5R)-5-({[4-(But-2-ynyloxy)phenyl]sulfonyl}amino)-6-(hydroxyamino)-6-oxohexyl]quinoline-3-carboxamide] showed an IC50 of 7.79 nM.

Turning to `CC#CCOc1ccc(S(=O)(=O)N[C@H](CCSC)C(=O)NO)cc1` [Example 80], 10.8 ± 3.7 nM corresponded to half-maximal inhibition (IC50).

In turn, `CC#CCOc1ccc(S(=O)(=O)N[C@H](CCCCNC(=O)c2c(C)noc2C)C(=O)NO)cc1` [Example 357, N-[(5R)-5-({[4-(But-2-ynyloxy)phenyl]sulfonyl}amino)-6-(hydroxyamino)-6-oxohexyl]-3,5-dimethylisoxazole-4-carboxamide] registered an IC50 of 14.1 nM.

In turn, `CC#CCOc1ccc(S(=O)(=O)N[C@H](CCCNC(=O)CCC)C(=O)NO)cc1` [Example 332, (2R)-2-({[4-(But-2-ynyloxy)phenyl]sulfonyl)amino)-5-(butyrylamino)-N-hydroxypentanamide] showed an IC50 of 5.13 nM.

`CC#CCOc1ccc(S(=O)(=O)N[C@H](CC(N)=O)C(=O)NO)cc1` [Example 75] gave a half-maximal inhibitory concentration (IC50) of 387 nM.

The compound `CC#CCOc1ccc(S(=O)(=O)N[C@H](CCCNC(=O)c2ccc3[nH]cnc3c2)C(=O)NO)cc1` [Example 329, N-[(4R)-4-({[4-(But-2-ynyloxy)phenyl]sulfonyl}amino)-5-(hydroxyamino)-5-oxopentyl]-1H-benzimidazole-5-carboxamide] registered a half-inhibitory concentration (IC50) of 6.88 nM.

On to `CC#CCOc1ccc(S(=O)(=O)N[C@H](Cc2ccc(F)cc2)C(=O)NO)cc1` [Example 316, (2R)-2-({[4-(But-2-ynyloxy)phenyl]sulfonyl}amino)-3-(4-fluorophenyl)-N-hydroxypropanamide], for which half-maximal inhibition (IC50) required 4 nM.

For the compound `CC#CCOc1ccc(S(=O)(=O)N[C@H](CCCNS(=O)(=O)c2cn(C)cn2)C(=O)NO)cc1` [Example 375, (2R)-2-({[4-(but-2-ynyloxy)Phenyl]sulfonyl}amino)-N-hydroxy-5-{[(1-methyl-1H-imidazol-4-yl)sulfonyl]amino}pentanamide], the half-inhibitory concentration (IC50) turned out to be 24.6 nM.

Consider `CC#CCOc1ccc(S(=O)(=O)N[C@H](CCCNC(=O)/C=C/c2ccccc2)C(=O)NO)cc1` [Example 348, (E)-N-[(4R)-4-({[4-(But-2-ynyloxy)phenyl]sulfonyl}amino)-5-(hydroxyamino)-5-oxopentyl]-3-phenylprop-2-enamide], for which the IC50 is 6.25 nM.

The compound `CC#CCOc1ccc(S(=O)(=O)N[C@H](CCC(=O)O)C(=O)NO)cc1` [Example 304, (4R)-4-({[4-(But-2-ynyloxy)phenyl]sulfonyl}amino)-5-(hydroxyamino)-5-oxopentanoic acid] gave an IC50 of 28.9 nM.

Compound `CC#CCOc1ccc(S(=O)(=O)N[C@H](CCCCNC(=O)c2ccccc2)C(=O)NO)cc1` [Example 350, N-[(5R)-5-({[4-(But-2-ynyloxy)phenyl]sulfonyl}amino)-6-(hydroxyamino)-6-oxohexyl]benzamide] came in with a half-maximal inhibitory concentration (IC50) of 6.28 nM.

`CC#CCOc1ccc(S(=O)(=O)N[C@H](CO)C(=O)NO)cc1` [Example 319, (2R)-2-({[4-(But-2-ynyloxy)phenyl]sulfonyl}amino)-N,3-dihydroxypropanamide] displayed an IC50 of 10.5 nM.

In turn, `CC#CCOc1ccc(S(=O)(=O)N[C@H](Cc2ccc(OCc3ccccc3)cc2)C(=O)NO)cc1` [Example 326, (2R)-3-[4-(Benzyloxy)phenyl]-2-({[4-(but-2-ynyloxy)phenyl]sulfonyl}amino)-N-hydroxypropanamide] came in with a 50% inhibitory concentration (IC50) of 58.6 nM.

Turning to `CC#CCOc1ccc(S(=O)(=O)N[C@H](CCCNC(=O)c2c(C)noc2C)C(=O)NO)cc1` [Example 338, N-[(4R)-4-({[4-(But-2-ynyloxy)phenyl]sulfonyl)amino)-5-(hydroxyamino)-5-oxopentyl]-3,5-dimethylisoxazole-4-carboxamide], the IC50 came out at 3.73 nM.

`CC#CCOc1ccc(S(=O)(=O)N[C@H](CCCNC(=N)N)C(=O)NO)cc1` [Example 296, (2R)-2-(4-But-2-ynyloxy-benzenesulfonylamino)-5-guanidino-pentanoic acid hydroxyamide] showed an IC50 of 10.9 nM.

As for `CC#CCOc1ccc(S(=O)(=O)N[C@@H](C(=O)NO)C2CCCCC2)cc1` [Example 78], the IC50 worked out at 11.8 ± 4.6 nM.

For the compound `CC#CCOc1ccc(S(=O)(=O)N2Cc3ccccc3C[C@@H]2C(=O)NO)cc1` [Example 325, (3R)-2-{[4-(But-2-ynyloxy)phenyl]sulfonyl}-N-hydroxy-1,2,3,4-tetrahydroisoquinoline-3-carboxamide], the IC50 is 6.9 nM.

As for `CC#CCOc1ccc(S(=O)(=O)N[C@@H](CC(C)C)C(=O)NO)cc1` [Example 90], the IC50 came to 462 ± 58 nM.

In the case of `CC#CCOc1ccc(S(=O)(=O)N[C@H](CCCNC(=N)NS(=O)(=O)c2ccc(C)cc2)C(=O)NO)cc1` [Example 297, (2R)-2-({[4-(2-Butynyloxy)phenyl]sulfonyl}amino)-N-hydroxy-5-[(imino{[(4-methylphenyl)sulfonyl]amino}methyl)amino]pentanamide], the half-maximal inhibitory concentration (IC50) was 10.9 nM.

`CC#CCOc1ccc(S(=O)(=O)N[C@H](CCCNC(=O)C2CCCCC2)C(=O)NO)cc1` [Example 335, N-[(4R)-4-({[4-(But-2-ynyloxy)phenyl]sulfonyl}amino)-5-(hydroxyamino)-5-oxopentyl]cyclohexanecarboxamide] displayed a half-inhibitory concentration (IC50) of 6.5 nM.

Turning to `CC#CCOc1ccc(S(=O)(=O)N[C@H](CCCNC(=O)CN2CCOCC2)C(=O)NO)cc1` [Example 376, (2R)-2-({[4-(but-2-ynyloxy)Phenyl]sulfonyl}amino)-N-hydroxy-5-[(2-morpholin-4-ylacetyl)amino]pentanamide], the IC50 amounted to 21.9 nM.

`CC#CCOc1ccc(S(=O)(=O)N[C@@H](C(=O)NO)[C@H](C)O)cc1` [Example 322, (2R,3S)-2-({[4-(But-2-ynyloxy)phenyl]sulfonyl}amino)-N,3-dihydroxybutanamide]: the IC50 worked out at 11.8 nM.

Turning to `CC#CCOc1ccc(S(=O)(=O)N[C@H](CCCC)C(=O)NO)cc1` [Example 312, (2R)-2-({[4-(But-2-ynyloxy)phenyl]sulfonyl}amino)-N-hydroxyhexanamide], 4.7 nM corresponded to half-maximal inhibition (IC50).

The record behind these values is patent publication US6716833B2, “Acetylenic α-amino acid-based sulfonamide hydroxamic acid tace inhibitors” (priority 1999, dated 2004).
